Source: PMC12009420, “Dynamically chiral phosphonic acid-type metallo-β-lactamase inhibitors” (Communications Chemistry, 2025)
Where two headings read alike, the source gives them in different places.

Legend:
VIM-2 [1] = target: T1, VIM-2 (Escherichia coli, UniProt Q5U7L7); experiment: Enzymatic metallo-β-lactamase assay on purified VIM-2; type: biochemical; conditions: for Ki: approximated from Dixon plots (1/v vs [I]) at one constant substrate concentration, ± SE, read-out: Estimated inhibition constant Ki VIM-2; for logIC50 VIM-2: log of IC50, ± SEM of logIC50; for IC50: purified enzyme 1 nM, nitrocefin 15 μM, pH 7.2, 25 °C
Description: (§1) A few inhibitors were tested up to 1600 μM to ensure nearly complete inhibition. Solutions of 100 μL consisting of buffer, purified enzyme (1 nM for GIM-1 and VIM-2, 5 nM for NDM-1), inhibitor and reporter substrate nitrocefin (15 μM for VIM-2, 2 μM for GIM-1) or imipenem (30 μM for NDM-1) were incubated in triplicates on a 96 well plate for 5 min at 25 °C. Buffer solution consisted of 50 mM HEPES pH 7.2, 50 μM ZnSO4 and 0.4 mg/ml bovine serum albumine. Inhibitors were dissolved in DMSO but diluted to assure <2% DMSO in measured assay. Absorbance was measured at 482 nm (nitrocefin) and 300 nm (imipenem) on a SpectraMax M4 spectrophotometer. The initial velocity at each inhibitor concentration was analyzed in GraphPad Prism v9.3.1 and fitted to dose-response curves by non-linear regression (log [inhibitor] vs response) used to calculate IC50 (Supplementary Tables S2–5).

GIM-1 [2] = target: T2, GIM-1 (Pseudomonas aeruginosa, UniProt Q704V1); experiment: Enzymatic metallo-β-lactamase assay on purified GIM-1; type: biochemical; conditions: for logIC50 GIM-1: log of IC50, ± SEM of logIC50; for IC50: purified enzyme 1 nM, nitrocefin 2 μM, pH 7.2, 25 °C
Description: as §1

NDM-1 [3] = target: T3, NDM-1 (Klebsiella pneumoniae, UniProt C7C422); experiment: Enzymatic metallo-β-lactamase assay on purified NDM-1; type: biochemical; conditions: for Ki: approximated from Dixon plots (1/v vs [I]) at one constant substrate concentration, ± SE, read-out: Estimated inhibition constant Ki NDM-1; for logIC50 NDM-1: log of IC50, ± SEM of logIC50; for IC50: purified enzyme 5 nM, imipenem 30 μM, pH 7.2, 25 °C
Description: as §1

MTT cytotoxicity assay = type: cell-based; conditions: human, HepG2 cells
Description: Cytotoxic activity of the compounds was measured through the MTT colorimetric assay as previously described[60] using the Colorimetric (MTT) Kit for Cell Survival and Proliferation (Merck/Millipore; Darmstadt, Germany). HepG2 cells (human hepatocellular carcinoma cell line) were kept in penicillin/streptomycin-free medium overnight and then they were treated with the compounds for 24 h. Subsequently, the MTT reagent was added to the cells and after 3 h of incubation, MTT-derived formazan crystals were solubilized in acidified isopropanol (0.1 mL isopropanol with 0.04 N HCl). Absorbance was measured with multiscan spectrophotometer (Thermo Fisher Scientific) at 530 nm test and 630 nm reference wavelengths. Cell viability was expressed as the percentage of viable, untreated cells. CC50 values were determined with GraphPad Prism software (v9.3.1) and adjusted to dose-response curves by non-linear regression (Supplementary Table S7).
8. Cytotoxocity against HepG2 cells
Table S7. CC50 values and viability curves of metallo-β-lactamase inhibitors tested on HepG2 […]
cells. […]
range. Data are shown as % via bility values ± SEM (n=4). Calculations were done using […]
Inhibitors CC50 (μM) HepG2 […]

[4] = Long term stability in buffer with 2.5% DMSO (LC-MS); type: physicochemical; conditions: 20 mM KPO4, 0.1 mM ZnCl2, pH 7.0 + 2.5% DMSO; LC-MS 254 nm
From the text: Reagents, reactants, solvents and drying agents for synthesis, work-up and purification were purchased from commercial vendors (Sigma-Aldrich, VWR, Merck, Fluorochem, Thermo Fisher Scientific, Solveco), and if not stated otherwise they were used without further purification. Reactions and long term stability of the final compounds in buffer were monitored using LC-MS (Agilent 1260 Infinity II) equipped with an ESI-Q detector (Infinitylab LC-MSD) using Agilent InfinityLab Poroshell 120 C18 columns (2.7 μm, ϕ 2.1 mm L 50 mm or 2.7 μm, ϕ 4.6 mm L 50 mm). The intermediates were purified using VWR silica gel 60 (40–63 μm) with a Biotage Isolera One flash column chromatography instrument. The final products were purified with preparative RP-HPLC (VWR LaPrep P110) with single wavelength detection (254 nm), using a Kinetex C8 column (5 μm, 100 Å, ϕ 21.2 mm L 250 mm) and gradients of CH3CN/H2O + 0.1% formic acid as the mobile phase at a 10 mL/min flow rate. Analytical HPLC data were acquired on a VWR LaChrome ELITE system using an ACE3 C8 (3 μm, 300 Å, ϕ 3.0 mm L 100 mm) or a Kinetex C18 columns (5 μm, 100 Å, ϕ 3.0 mm L 150 mm). NMR spectra were recorded on a Varian Agilent MR400-DD2 400 MHz spectrometer equipped with a OneNMR probe, Bruker Avance Neo 500 MHz spectrometer equipped with a cryogenic TXO probe, or a Bruker Avance Neo 600 MHz spectrometer equipped with a TCI cryogenic probe. The chemical shifts are reported using the residual solvent signal as an indirect reference to TMS.
4. Long term stability of the final compounds in buffer with 2.5% DMSO
The long term stability of the final compounds in buffer (20 mM KPO4, 0.1 mM ZnCl2, pH 7.0 + 2.5% DMSO) were monitored using LC-MS (Agilent 1260 Infinity II) equipped with an ESI-Q detector (Infinitylab LC-MSD) using Agilent InfinityLab Poroshell 120 C18 column (2.7 μm, ϕ 4.6 mm L 50 mm) at 254 nm with a 7 min long gradient method (5% to 95% CH3CN) of CH3CN/H2O + 0.1% formic acid as the mobile phase at a 1.0 mL/min flow rate. The samples were measured right after dissolving them in buffer, and after 1 month of keeping the same samples dissolved in the same buffer. The main peaks (> 95%) and impurities with > 1% are […]
Figure S14. Compound 5a right after dissolving it in buffer.
Figure S15. Compound 5a kept in buffer for 1 month. […]

15N-labeled NDM-1 = target: T4, 15N-labeled NDM-1 (Klebsiella pneumoniae, UniProt C7C422); experiment: 1H,15N-HSQC titration of NDM-1; type: binding; conditions: 10 equivalents of compound, 600 MHz, pH 7.0, 25 °C
T4 construct: made in house
Description: The ^1H, ^15N-HSQC spectra for the titration experiments were recorded on a Bruker Avance Neo 600 MHz spectrometer equipped with a 5 mm TCI cryogenic probe at 25 °C. The U-[^15N]-labeled VIM-2 was prepared in a buffer of 20 mM KPO4, 0.1 mM ZnCl2, at pH 7.0, containing 85% H2O/15% D2O at a concentration of 0.25 mM. The U-[^15N]-labeled NDM-1 was used in a buffer of 20 mM HEPES, 0.1 mM ZnCl2, at pH 7.0, containing 85% H2O/15% D2O at a concentration of 0.25 mM. The ligands 5d, 5g, 5i, 5j (for VIM-2 titrations) and 5 f (for NDM-1 titration) were dissolved in the same buffer as the corresponding enzymes. Spectra were recorded using solvent suppression, 1024 points in f1, 16 transients, 512 increments in f2 and a relaxation delay of 0.2 s. The titrations were carried out with 0, 0.25, 0.50, 1.00, 1.50, 2.25, 3.00, 4.00, 5.00, 7.00, 10.0 equivalents of the inhibitors. […]
(§2) Chemical shift perturbation values (CSP, ΔδNH) were calculated as the weighted average of
(§3) the chemical shift changes in f1 (ΔδN) and f2 (ΔδH) dimensions using the following equation 8:
∆δ = √∆δ 2 + ( N ); R = 6.5 […]

15N-labelled VIM-2 = target: T5, 15N-labelled VIM-2 (Escherichia coli, UniProt Q5U7L7); experiment: 1H,15N-HSQC titration of VIM-2; type: binding; conditions: 10 equivalents of compound, 600 MHz, pH 7.0, 25 °C
T5 construct: made in house
Description: The ^1H, ^15N-HSQC spectra for the titration experiments were recorded on a Bruker Avance Neo 600 MHz spectrometer equipped with a 5 mm TCI cryogenic probe at 25 °C. The U-[^15N]-labeled VIM-2 was prepared in a buffer of 20 mM KPO4, 0.1 mM ZnCl2, at pH 7.0, containing 85% H2O/15% D2O at a concentration of 0.25 mM. The U-[^15N]-labeled NDM-1 was used in a buffer of 20 mM HEPES, 0.1 mM ZnCl2, at pH 7.0, containing 85% H2O/15% D2O at a concentration of 0.25 mM. The ligands 5d, 5g, 5i, 5j (for VIM-2 titrations) and 5 f (for NDM-1 titration) were dissolved in the same buffer as the corresponding enzymes. Spectra were recorded using solvent suppression, 1024 points in f1, 16 transients, 512 increments in f2 and a relaxation delay of 0.2 s. The titrations were carried out with 0, 0.25, 0.50, 1.00, 1.50, 2.25, 3.00, 4.00, 5.00, 7.00, 10.0 equivalents of the inhibitors.
Figure S47. Superimposition of the 1H,15N-HSQC spectrum (600 MHz, pH 7.0, 25 °C) of
VIM-2 in the absence (blue) and in the presence (green) of 10 molar equivalent of compound
5j. Buffer: 20 mM KPO4, 0.1 mM ZnCl2, with 15% D2O.
as §2, §3
∆δ = √∆δ 2 + ( N ); R = 6.5
Figure S48. Linear regression of the chemical shift perturbations of compound 5g (IC50 =
12 μM) as a function of the chemical shift perturbations of compounds 5c (yellow circle), 5d
(grey square), 5i (green triangle) and 5j (blue circle) for VIM-2. The data of the studied […]

GIM-1 [5] = target: T2, GIM-1; experiment: Enzymatic metallo-β-lactamase assay on purified GIM-1; type: biochemical; conditions: approximated from Dixon plots (1/v vs [I]) at one constant substrate concentration; ± SE; read-out: Estimated inhibition constant Ki GIM-1
VIM-2 [6] = target: T1, VIM-2; conditions: cited from earlier work
NDM-1 [7] = target: T3, NDM-1; conditions: read-out: IC50 against NDM-1; cited from earlier work
[8] = read-out: Kd, affinity to zinc ions; cited from earlier work
[9] = HepG2, MTT, read-out: CC50 (in viability curve)
[10] = MTT, 0.0025 mM - 1mM concentration range, read-out: Cytotoxicity CC50 HepG2

T2 sequence (Q704V1 entry or part of it): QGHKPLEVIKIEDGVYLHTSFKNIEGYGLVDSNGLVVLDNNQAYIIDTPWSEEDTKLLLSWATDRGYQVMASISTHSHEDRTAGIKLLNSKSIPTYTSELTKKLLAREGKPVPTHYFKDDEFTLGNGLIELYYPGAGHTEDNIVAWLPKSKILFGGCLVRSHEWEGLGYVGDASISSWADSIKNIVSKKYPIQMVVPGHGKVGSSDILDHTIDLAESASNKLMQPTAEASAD
T3 sequence (C7C422 29-270, looked up, species assumed): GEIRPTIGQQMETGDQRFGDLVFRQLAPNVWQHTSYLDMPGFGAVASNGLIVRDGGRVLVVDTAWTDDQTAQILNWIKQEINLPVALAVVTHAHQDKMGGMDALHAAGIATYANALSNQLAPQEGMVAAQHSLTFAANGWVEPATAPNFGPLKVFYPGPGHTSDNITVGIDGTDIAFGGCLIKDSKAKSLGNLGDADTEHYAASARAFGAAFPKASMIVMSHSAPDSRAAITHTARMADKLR
T4 sequence (C7C422 29-270, looked up): as the sequence (C7C422 29-270, looked up, species assumed) above

| Mean chemical shift perturbation, NDM-1 (15N-labeled NDM-1) [ppm] | Structure (SMILES) | Ki (VIM-2 [1]) [µM] | logIC50 VIM-2 (VIM-2 [1]) [μM] | IC50 (VIM-2 [1]) [µM] | logIC50 GIM-1 (GIM-1 [2]) [μM] | IC50 (GIM-1 [2]) [µM] | Ki (NDM-1 [3]) [µM] | logIC50 NDM-1 (NDM-1 [3]) | IC50 (NDM-1 [3]) [µM] | CC50 at 24 h (MTT cytotoxicity assay; [9]) [µM] | CC50 at 24 h (MTT cytotoxicity assay; [10]) [µM] | main peak Area% kept in buffer for 1 month [4] [%] | main peak Area% right after dissolving in buffer [4] [%] | Mean chemical shift perturbation, VIM-2 (15N-labelled VIM-2) [ppm] | Ki (GIM-1 [5]) [µM] | IC50 (VIM-2 [6]; read-out: IC50 against VIM-2) [µM] | IC50 (NDM-1 [7]) [µM] | Kd [8] [µM] | IC50 (VIM-2 [6]; Table S8, ref 35 (SI), read-out: IC50 VIM-2) [µM] | IC50 (VIM-2 [6]; read-out: IC50 for VIM-2) [µM] |
| --- | --- | --- | --- | --- | --- | --- | --- | --- | --- | --- | --- | --- | --- | --- | --- | --- | --- | --- | --- | --- |
| 0.05 | O=C(NC(c1ccccc1O)P(=O)(O)O)c1csc2c1CCCC2 (centres unmarked) [5f] | 40 ± 2 | 1.68 ± 0.05 | 48 | 1.71 ± 0.10 | 52 | 128 ± 58 | 1.48 ± 0.03 log10(IC50/μM) | 30 | 4800 | 4800 | 95.90 | 95.67 |  |  |  |  |  |  |  |
|  | O=C(Cc1cccs1)NC(c1ccccc1O)P(=O)(O)O (centres unmarked) [5i] | 76 ± 8 | 1.58 ± 0.08 | 38 | 2.28 ± 0.52 | 189 | 1070 ± 360 | 1.94 ± 0.08 log10(IC50/μM) | 87 | 1500 | 1490 | 97.58 | 96.45 | 0.04 | 348 ± 28 |  |  |  |  |  |
|  | O=C(O)CN(CC(=O)O)CP(=O)(O)O [N-(phosphonomethyl)-iminodiacetic acid] |  |  |  |  |  |  |  |  |  |  |  |  |  |  | 0.68 | 0.91 | 0.056 |  |  |
|  | NCCN[C@H]1CC[C@H](CC(=O)N[C@H]2Cc3cccc(C(=O)O)c3OB2O)CC1 [taniborbactam] |  |  |  |  |  |  |  |  |  |  |  |  |  |  |  |  |  | 0.002 | 0.04 |
